Experimental data: patent US11952554B2, “Alkyl polyglycoside-containing cleaning formulations for chemically sensitive individuals” (Living Clean NZ, Ltd., priority 2021, dated 2024)

Columns and labels:
[1] = test system: chemically sensitive individuals (MCS); parameters: species or system human; conditions: in vivo
Experimental: Once candidate ingredients are identified and tested as described above, they are evaluated for use in potential cleaning formulations using a blind study protocol. The blind studies used in the course of the instant work were comprised of a specially selected panel of volunteers. […] A panel comprised of just such individuals was used for many aspects of the studies conducted herein. […] See E. A. Krusemark and W. Li, “Enhanced olfactory sensory perception of threat in anxiety: An event-related fMRI study,” Chemosensory Perception, 5 (2012) 37-45; the article in its entirely is herein incorporated by reference.
In the course of the instant work, at least one individual with MCS was used to rank prospective ingredients for acceptability in cleaning formulations based upon sensory responses, which included olfactory as well as skin contact. Instrumental analyses were then implemented to correlate results with sensory ratings from the human panel, and to identify and/or quantify the chemicals detected and deemed to be potentially harmful to humans. Ingredients that were deemed acceptable by the human panel and the instrumental analyses were then used as raw materials for cleaning products described herein. It is believed that this level of pre-screening and testing represents a first in the world for consumer cleaning product formulations work, and has provided an unprecedented level of safety testing for consumer products. Accordingly, in one aspect of the technology newly presented and described herein, a method for providing cleaning formulations for use by the general public and chemically-sensitized individuals, in particular, involves:
Without being bound by theory, it is believed that this phenomenon is due to the non-exact nature of the BCI or RCI measurement (±3% by weight) vis-à-vis the low amounts of contaminants, perhaps much less than 1% by weight, that are present in certain ingredients. To test this hypothesis, a number of chemically sensitive individuals assessed four types of alkyl polyglucosides, or APGs, from three manufacturers, all of which have an apparent BCI/RCI of 100%. Each of the APG candidates was rated on a 3-point index: Acceptable, Marginal, and Unacceptable. The Marginal and Unacceptable candidates were then analyzed for the presence of trace contaminants.
In the manufacture of surfactants, it can be assumed that a small amount, albeit a significant one, of feedstock remains unreacted. This amount can often be less than 1% by weight, but to individuals who are sensitive to such species, the impact can be significant. […] As such, a number of raw materials were evaluated by a number of chemically sensitive individuals for acceptability using the same scale as above.

[2] = cited from earlier work

C8-10 alkyl polyglucoside
Acceptability Rating [1]: Unacceptable

CCCCCCCCOS(=O)(=O)[O-].[Na+] [Sodium octyl sulfate (from bio-basis), Sodium octyl sulfate]
Acceptability Rating [1]: Unacceptable

C10-16 alkyl polyglucoside
Acceptability Rating [1]: Acceptable-

Sodium coco sulfate
Acceptability Rating [1]: Acceptable

ClC(Cl)Cl [Trichloromethane (chloroform), Trichloromethane]
CAA-HAP listing ([2]; Clean Air Act-Hazardous Air Pollutant): ✓ | CAA-TFS listing ([2]; Clean Air Act-Toxic and Flammable Substances for Accidental Release Prevention): ✓ | CWA listing ([2]; Clean Water Act-Priority Pollutant): ✓ | CERCLA listing ([2]; Comprehensive Environmental Response, Compensation, and Liability Act-Hazardous Substance): ✓ | EPCRA listing ([2]; Emergency Planning & Community Right to Know Act-Toxic Release Inventory Chemical): ✓ | OSHA listing ([2]; Occupational Safety and Health Act-Air Contaminants): ✓ | RCRA listing ([2]; Resource Conservation and Recovery Act-Hazardous Constituents): ✓
